# Where a name gives a salt, the structure may show the parent alone.
# How the values were obtained:
# Assay type in all cases: cell-based
# [1] = system: human chronic myeloid leukemia cell line K562; assay: Cytostatic activity on leukemia cell line K562 (WST-1); settings: Homo sapiens; 10 μmol/L, 72 hours, K562 cells; read-out: cytostatic rate K562 (%) (10 μmol/L)
# Experimental: (§1) The cytostatic rates of a test compound on human acute myeloid leukemia cell lines MV-4-11 and ML-1, and human chronic myeloid leukemia cell line K562 were determined in the following manner.
# (§2) Each cell was cultured using Roswell Park Memorial Institute's Medium (RPMI) 1640 (Gibco, Catalog No. 11875-093) containing 10% fetal bovine serum (Gibco, Catalog No. 10437-028) and 1% penicillin/streptomycin (1:1) (Gibco, Catalog No. 15140-122). Each 80 μL of the MV-4-11 cell having a concentration of 7.5×10^4 cells/mL (or the ML-1 cell or K562 cell having a concentration of 2.5×10^4 cells/mL) was inoculated to wells of a TC MICROWELL 96U plate (Nalge Nunc International, Catalog No. 163320) and was cultured in a 5% carbon dioxide gas incubator at 37° C. for 4 hours. As a blank, only RPMI medium (80 μL) was added to a well. Each 20 μL of a solution of the test compound in dimethyl sulfoxide (DMSO) which was prepared to make the final concentration to 10 μmol/L, was added to the MV-4-11 cell, ML-1 cell and K562 cell, respectively. Each 20 μL of DMSO was added to the control well and the blank well to […]. After adding the test compound, the cells were incubated in a 5% carbon dioxide gas incubator at 37° C. for 72 hours. After adding 20 μL of WST-1 reagent {4-[3-(4-iodophenyl)-2-(4-nitrophenyl)-2H-5-tetrazolio]-1,3-benzene disulfonate sodium salt} (Roche Diagnostics K.K., Catalog No. 1644807) diluted to 50% with RPMI medium, the cells were further incubated at 37° C. for 2 hours. Then, the absorbances at 450 nm (reference wavelength: 690 nm) were determined with a microplate spectrophotometer SPECTRA max 340PC (Molecular Devices Corporation). The relative growth (%) of a well to which the test compound had been added was determined while setting the absorbance of a well to which not the test compound but DMSO alone had been added (control) at 100% and that of a well containing RPMI medium alone at 0%. The cytostatic rate (%) of the test compound was determined by subtracting the calculated relative growth from 100.
# [2] = system: human acute myeloid leukemia cell line MV-4-11; assay: Cytostatic activity on leukemia cell line MV-4-11 (WST-1); settings: Homo sapiens, MV4-11; 10 μmol/L, 72 hours, MV-4-11 cells; read-out: cytostatic rate MV-4-11 (%) (10 μmol/L)
# Experimental: as §1, §2
# [3] = system: human acute myeloid leukemia cell line ML-1; assay: Cytostatic activity on leukemia cell line ML-1 (WST-1); settings: Homo sapiens, ML1; 10 μmol/L, 72 hours, ML-1 cells; read-out: cytostatic rate ML-1 (%) (10 μmol/L)
# Experimental: as §1, §2
# [4] = system: human colon cancer cell line Colo205; assay: Cytostatic activity on solid carcinoma cell line Colo205 (WST-1); settings: Homo sapiens, COLO 205; 10 μmol/L, 72 hours, Colo205 cells; read-out: cytostatic rate Colo205 (%) (10 μmol/L)
# Experimental: as §2
# The cytostatic rate of a test compound on the human colon cancer cell line Colo205 was determined in the following manner.
# The cell was cultured using Roswell Park Memorial Institute's Medium (RPMI) 1640 (Gibco, Catalog No. 11875-093) containing 10% fetal bovine serum (Gibco, Catalog No. 10437-028) and 1% penicillin/streptomycin (1:1) (Gibco, Catalog No. 15140-122). Each 80 μL of the Colo205 having a concentration of 1.25×10^4 cells/mL was inoculated to wells of a TC MICROWELL 96F plate (Nalge Nunc International, Catalog No. 167008) and was cultured in a 5% carbon dioxide gas incubator at 37° C. for 24 hours. As a blank, only RPMI (80 μL) was added to a well. Each 20 μL of a solution of the test compound in DMSO which was prepared to make the final concentration to 10 μmol/L, was added to the Colo205 cell. Each 20 μL of DMSO was added to the control well and the blank well to […]. After adding the test compound, the cell was incubated in a 5% carbon dioxide gas incubator at 37° C. for 72 hours. The cytostatic rate (%) was then determined in the same way as the leukemia cell lines.
SMILES,inhibition at 10 µM [1] [%],inhibition at 10 µM [2] [%],inhibition at 10 µM [3] [%],inhibition at 10 µM [4] [%]
"CN(C)C(=O)C1CCN(C(=O)c2ccc(/C=C/c3n[nH]c4ccccc34)cc2)CC1 [Compound 92, (E)-N,N-dimethyl-1-{4-[2-(1H-indazol-3-yl)vinyl]benzoyl}piperidine-4-carboxamide]",89,98,88,89
"O=C(c1ccc(/C=C/c2n[nH]c3ccccc23)cc1)N1CCN(CCO)CC1 [Compound 105, (E)-1-{4-[2-(1H-indazol-3-yl)vinyl]benzoyl}-4-(2-hydroxyethyl)piperazine]",90,96,85,88
"O=C(c1ccc(/C=C/c2n[nH]c3ccccc23)cc1)N1CCN(C(=O)c2ccsc2)CC1 [Compound 58, (E)-4-(3-thiophenecarbonyl)-1-{4-[2-(1H-indazol-3-yl)vinyl]benzoyl}piperazine]",89,96,74,85
"O=C(c1ccc(/C=C/c2n[nH]c3ccccc23)cc1)N1CCCNCC1 [Compound 85, (E)-1-{4-[2-(1H-indazol-3-yl)vinyl]benzoyl}homopiperazine dihydrochloride]",90,99,78,89
"O=C1CN(C(=O)c2ccc(/C=C/c3n[nH]c4ccccc34)cc2)CCN1 [Compound 89, (E)-4-{4-[2-(1H-indazol-3-yl)vinyl]benzoyl}piperazin-2-one]",61,98,86,92
"CC(=O)N(C)CC(=O)N1CCN(C(=O)c2ccc(/C=C/c3n[nH]c4ccccc34)cc2)CC1 [Compound 138, (E)-4-(N-acetyl-N-methylaminoacetyl)-1-{4-[2-(1H-indazol-3-yl)vinyl]benzoyl}piperazine]",94,99,88,91
"CC(C)(CO)C(=O)N1CCN(C(=O)c2ccc(/C=C/c3n[nH]c4ccccc34)cc2)CC1 [Compound 72, (E)-4-(3-hydroxy-2,2-dimethylpropionyl)-1-{4-[2-(1H-indazol-3-yl)vinyl]benzoyl}piperazine]",95,100,80,93
"CC(CO)(CO)C(=O)N1CCN(C(=O)c2ccc(/C=C/c3n[nH]c4ccccc34)cc2)CC1 [Compound 136, (E)-4-(3-hydroxy-2-hydroxymethyl-2-methylpropionyl)-1-{4-[2-(1H-indazol-3-yl)vinyl]benzoyl}piperazine hydrochloride]",94,99,82,91
"CC(C)(N)C(=O)N1CCN(C(=O)c2ccc(/C=C/c3n[nH]c4ccccc34)cc2)CC1 [Compound 131, (E)-4-(2-amino-2-methylpropionyl)-1-{4-[2-(1H-indazol-3-yl)vinyl]benzoyl}piperazine dihydrochloride]",98,99,85,91
"COCC(=O)N1CCN(C(=O)c2ccc(/C=C/c3n[nH]c4ccccc34)cc2)CC1 [Compound 65, (E)-4-methoxyacetyl-1-{4-[2-(1H-indazol-3-yl)vinyl]benzoyl}piperazine]",85,97,86,88
"NC1CCN(C(=O)c2ccc(/C=C/c3n[nH]c4ccccc34)cc2)C1 (stereo not drawn) [Compound 122, (E)-1-{4-[2-(1H-indazol-3-yl)vinyl]benzoyl}-3-aminopyrrolidine dihydrochloride]",93,98,79,89
"N[C@@H]1CCN(C(=O)c2ccc(/C=C/c3n[nH]c4ccccc34)cc2)C1 [Compound 158, (R)-(E)-1-{4-[2-(1H-Indazol-3-yl)vinyl]benzoyl}-3-aminopyrrolidine]",90,98,80,91
"COCCC(=O)N1CCN(C(=O)c2ccc(/C=C/c3n[nH]c4ccccc34)cc2)CC1 [Compound 98, (E)-4-(3-methoxypropionyl)-1-{4-[2-(1H-indazol-3-yl)vinyl]benzoyl}piperazine]",89,98,79,88
"CC(C)(C)OC(=O)NN1CCN(C(=O)c2ccc(/C=C/c3n[nH]c4ccccc34)cc2)CC1 [Compound 148, (E)-1-{4-[2-(1H-indazol-3-yl)vinyl]benzoyl}-4-(tert-butyloxycarbonylamino)piperazine]",91,98,81,83
"CC1(C(=O)N2CCN(C(=O)c3ccc(/C=C/c4n[nH]c5ccccc45)cc3)CC2)CC1 [Compound 77, (E)-4-(1-methylcyclopropanecarbonyl)-1-{4-[2-(1H-indazol-3-yl)vinyl]benzoyl}piperazine]",95,98,80,86
"CC(C)CC(=O)N1CCN(C(=O)c2ccc(/C=C/c3n[nH]c4ccccc34)cc2)CC1 [Compound 66, (E)-4-(3-methylbutyryl)-1-{4-[2-(1H-indazol-3-yl)vinyl]benzoyl}piperazine]",89,99,74,83
"O=C(c1ccc(/C=C/c2n[nH]c3ccccc23)cc1)N1CCC(C(=O)N2CCOCC2)CC1 [Compound 51, (E)-1-{4-[2-(1H-indazol-3-yl)vinyl]benzoyl}-4-(morpholinocarbonyl)piperidine]",95,98,89,90
"CC(C)(O)CC(=O)N1CCN(C(=O)c2ccc(/C=C/c3n[nH]c4ccccc34)cc2)CC1 [Compound 90, (E)-4-(3-methyl-3-hydroxybutyryl)-1-{4-[2-(1H-indazol-3-yl)vinyl]benzoyl}piperazine]",85,98,79,88
"O=C(c1ccc(/C=C/c2n[nH]c3ccccc23)cc1)N1CCN(C(=O)[C@H]2CCNC2)CC1 [Compound 124, (S)-(E)-1-{4-[2-(1H-indazol-3-yl)vinyl]benzoyl}-4-(pyrrolidin-3-ylcarbonyl)piperazine dihydrochloride]",94,98,83,87
"CCOCC(=O)N1CCN(C(=O)c2ccc(/C=C/c3n[nH]c4ccccc34)cc2)CC1 [Compound 128, (E)-4-ethoxyacetyl-1-{4-[2-(1H-indazol-3-yl)vinyl]benzoyl}piperazine]",87,98,79,88
"O=CN1CCN(C(=O)c2ccc(/C=C/c3n[nH]c4ccccc34)cc2)CC1 [Compound 19, (E)-4-{4-[2-(1H-indazol-3-yl)vinyl]benzoyl}piperazine-1-carbaldehyde]",78,97,89,89
